Where a SMILES comes first, the peptide text is derived from it. [ ]: non-standard residue; d: D form. The star is where a group is joined. Dap = NC[C@H](N)C(=O)O; X1 = O=C(CCCCCF)*
Biological target: T1, GHSR (Homo sapiens, UniProt Q92847)
T1 construct: expressed in transfected cells; host or cells: CHO-K1
Experiment: Radioligand binding assay (125I-ghrelin displacement)
Details: 125I-ghrelin (human) radioligand; for IC50: read-out: IC50 (nM), binding affinity of fluorine bearing ghrelin analogues, human recombinant CHO-K1 cells as receptor source, 18a-c semi-quantitative from % inhibition at 10^-5 to 10^-8 M, duplicated
Procedure: Radioligand Binding Assay.
IC50 values were determined by a non-linear, least squares regression analysis using MathIQ™ (ID Business Solutions Ltd., UK).

T1 sequence (Q92847 whole entry): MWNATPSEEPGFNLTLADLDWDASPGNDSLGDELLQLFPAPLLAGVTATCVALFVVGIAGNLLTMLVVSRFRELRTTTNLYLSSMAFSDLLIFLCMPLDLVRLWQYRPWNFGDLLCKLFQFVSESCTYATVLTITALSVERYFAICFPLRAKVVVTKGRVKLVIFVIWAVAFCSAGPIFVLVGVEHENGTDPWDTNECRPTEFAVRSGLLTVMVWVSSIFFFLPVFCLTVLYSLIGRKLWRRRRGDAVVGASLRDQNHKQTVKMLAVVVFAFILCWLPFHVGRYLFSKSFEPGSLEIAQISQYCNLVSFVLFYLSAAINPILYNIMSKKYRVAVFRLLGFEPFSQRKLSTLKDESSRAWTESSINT

| inhibition at 2 µM (at 2000 nM) [%] | IC50 [nM] | Structure (SMILES) |
| --- | --- | --- |
| ~20 |  | CC(C)C[C@H](NC(=O)[C@H](Cc1ccccc1)NC(=O)[C@H](CNC(=O)CCCCCF)NC(=O)[C@H](CO)NC(=O)CN)C(N)=O [Cmpd 17, Ghrelin(1-5)-6C—F] (H-GS[Dap](X1)FL-NH2) |
|  | 147 | CC(C)C[C@H](NC(=O)[C@H](Cc1ccccc1)NC(=O)[C@H](CNC(=O)CCCCCF)NC(=O)[C@H](CO)NC(=O)CN)C(=O)N[C@@H](CO)C(=O)N1CCC[C@H]1C(=O)N[C@@H](CCC(=O)O)C(=O)N[C@@H](Cc1c[nH]cn1)C(=O)N[C@@H](CCC(N)=O)C(=O)N[C@@H](CCCNC(=N)N)C(=O)N[C@H](C(=O)N[C@@H](CCC(N)=O)C(=O)N[C@@H](CCC(N)=O)C(N)=O)C(C)C [Cmpd 18a, Ghrelin(1-14)-6C—F] |
|  | 39.6 | CC(C)C[C@H](NC(=O)[C@H](Cc1ccccc1)NC(=O)[C@H](CNC(=O)CCCCCCCCF)NC(=O)[C@H](CO)NC(=O)CN)C(=O)N[C@@H](CO)C(=O)N1CCC[C@H]1C(=O)N[C@@H](CCC(=O)O)C(=O)N[C@@H](Cc1c[nH]cn1)C(=O)N[C@@H](CCC(N)=O)C(=O)N[C@@H](CCCNC(=N)N)C(=O)N[C@H](C(=O)N[C@@H](CCC(N)=O)C(=O)N[C@@H](CCC(N)=O)C(N)=O)C(C)C [Cmpd 18b, Ghrelin(1-14)-9C—F] |

| Structure (SMILES) | inhibition at 2 µM (at 2000 nM) [%] | IC50 [nM] |
| --- | --- | --- |
| CC(C)C[C@H](NC(=O)[C@H](Cc1ccccc1)NC(=O)[C@H](CNC(=O)CCCCCCCCCCCF)NC(=O)[C@H](CO)NC(=O)CN)C(=O)N[C@@H](CO)C(=O)N1CCC[C@H]1C(=O)N[C@@H](CCC(=O)O)C(=O)N[C@@H](Cc1c[nH]cn1)C(=O)N[C@@H](CCC(N)=O)C(=O)N[C@@H](CCCNC(=N)N)C(=O)N[C@H](C(=O)N[C@@H](CCC(N)=O)C(=O)N[C@@H](CCC(N)=O)C(N)=O)C(C)C [Cmpd 18c, Ghrelin(1-14)-12C—F] |  | 27.9 |
